In PubChem BioAssay AID248 (DTP/NCI, 2004):
Where “and” joins values, the source holds several entries; their conditions need not be identical. Equal values may be shown once. Toxic doses and inconclusive results are not listed.

Test system: L1210 leukemia ip in BDF1 mice, survival T/C
Assay: NCI In Vivo Anticancer Drug Screen. Data for tumor model L1210 Leukemia (intraperitoneal) in B6D2F1 (BDF1) mice
Settings: higher = longer survival
In short: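 Tumor was transplanted into mice, which were then dosed with test compound or vehicle alone. Survival was recorded for each group, and the treated figure was expressed relative to the control figure.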

[1] = endpoint: mean survival time, dose: 100.0 mg/kg/injection, schedule: Q01DX001 (ip), vehicle: saline
[2] = endpoint: mean survival time, dose: 200.0 mg/kg/injection, schedule: Q01DX001 (ip), vehicle: saline
[3] = endpoint: mean survival time, dose: 400.0 mg/kg/injection, schedule: Q01DX001 (ip), vehicle: saline
[4] = endpoint: mean survival time, dose: 100.0 mg/kg/injection, schedule: Q01DX009 (ip), vehicle: saline with Tween-80

CS(C)=O
T/C [1]: 112 % of control
T/C [2]: 102 % of control
T/C [3]: 106 % of control
T/C (endpoint: mean survival time, dose: 1500.0 mg/kg/injection, schedule: Q01DX Z (ip), vehicle: other): 98 % of control
T/C (endpoint: mean survival time, dose: 1.6 grams/kg/injection, schedule: Q03HX008 (ip), vehicle: saline): 97 % of control
T/C (endpoint: mean survival time, dose: 1.6 grams/kg/injection, schedule: Q03HX016 (ip), vehicle: saline): 101 % of control
T/C (endpoint: mean survival time, dose: 1.6 grams/kg/injection, schedule: Q03HX024 (ip), vehicle: saline): 105 % of control
T/C (endpoint: mean survival time, dose: 3000.0 mg/kg/injection, schedule: Q01DX Z (ip), vehicle: other): 98 % of control
T/C (endpoint: mean survival time, dose: 3.1 grams/kg/injection, schedule: Q01DX001 (ip), vehicle: saline): 104 % of control
T/C (endpoint: mean survival time, dose: 3.1 grams/kg/injection, schedule: Q01DX009 (ip), vehicle: saline): 100 % of control
T/C (endpoint: mean survival time, dose: 3.1 grams/kg/injection, schedule: Q03HX008 (ip), vehicle: saline): 91 % of control
T/C (endpoint: mean survival time, dose: 3.1 grams/kg/injection, schedule: Q03HX024 (ip), vehicle: saline): 110 % of control
T/C (endpoint: mean survival time, dose: 3.1 grams/kg/injection, schedule: Q04DX003 (ip), vehicle: saline): 95 % of control
T/C (endpoint: mean survival time, dose: 3.1 grams/kg/injection, schedule: Q08DX002 (ip), vehicle: saline): 98 % of control
T/C (endpoint: mean survival time, dose: 6.3 grams/kg/injection, schedule: Q01DX001 (ip), vehicle: saline): 100 % of control
T/C (endpoint: mean survival time, dose: 6.3 grams/kg/injection, schedule: Q01DX009 (ip), vehicle: saline): 97 % of control
T/C (endpoint: mean survival time, dose: 6.3 grams/kg/injection, schedule: Q04DX003 (ip), vehicle: saline): 95 % of control
T/C (endpoint: mean survival time, dose: 6.3 grams/kg/injection, schedule: Q08DX002 (ip), vehicle: saline): 96 % of control
T/C (endpoint: median survival time, dose: 0.5 mg/kg/injection, schedule: Q#C X009 (adlb), vehicle: water): 106 % of control
T/C (endpoint: median survival time, dose: 1.0 mg/kg/injection, schedule: Q01DX019 (adlb), vehicle: water): 92 % of control
T/C (endpoint: median survival time, dose: 1.0 mg/kg/injection, schedule: Q#C X009 (adlb), vehicle: water): 102 % of control
T/C (endpoint: median survival time, dose: 2.0 mg/kg/injection, schedule: Q01DX019 (adlb), vehicle: water): 97 % of control
T/C (endpoint: median survival time, dose: 2.0 mg/kg/injection, schedule: Q#C X009 (adlb), vehicle: water): 107 % of control
T/C (endpoint: median survival time, dose: 4.0 mg/kg/injection, schedule: Q01DX019 (adlb), vehicle: water): 99 % of control
T/C (endpoint: median survival time, dose: 4.0 mg/kg/injection, schedule: Q#C X009 (adlb), vehicle: water): 101 % of control
T/C (endpoint: median survival time, dose: 8.0 mg/kg/injection, schedule: Q#C X009 (adlb), vehicle: water): 103 % of control

NCC1=NCCN1
T/C (endpoint: mean survival time, dose: 25.0 mg/kg/injection, schedule: Q04DX002 (ip), vehicle: saline): 93 % of control
T/C (endpoint: mean survival time, dose: 50.0 mg/kg/injection, schedule: Q04DX002 (ip), vehicle: saline): 97 % of control
T/C (endpoint: mean survival time, dose: 100.0 mg/kg/injection, schedule: Q04DX002 (ip), vehicle: saline): 101 % of control
T/C (endpoint: mean survival time, dose: 200.0 mg/kg/injection, schedule: Q04DX002 (ip), vehicle: saline): 93 % of control

CN(N=O)C(=O)Nc1cccc2cccnc12
T/C (endpoint: mean survival time, dose: 6.25 mg/kg/injection, schedule: Q01DX Z (ip), vehicle: carboxymethylcellulose (CMC)): 101 % of control
T/C (endpoint: mean survival time, dose: 12.5 mg/kg/injection, schedule: Q01DX Z (ip), vehicle: carboxymethylcellulose (CMC)): 106 % of control
T/C (endpoint: mean survival time, dose: 25.0 mg/kg/injection, schedule: Q01DX Z (ip), vehicle: carboxymethylcellulose (CMC)): 124 % of control

O=C1N=C(c2ccccc2)OC1C(=O)c1ccccc1 (stereo not given)
T/C [1]: 110 % of control
T/C [2]: 94 % of control

O=C(O)C(Cc1ccc(O)cc1)NC(=O)N(c1ccccc1)c1ccccc1 (stereo not given)
T/C [1]: 95 % of control
T/C [2]: 103 % of control
T/C [3]: 106 % of control

N/N=C\c1cnnc2ccccc12
T/C [1]: 95 % of control
T/C [2]: 95 % of control
T/C [3]: 98 % of control

CCCC(=O)C(CC)C(O)(C(F)(F)F)C(F)(F)F (stereo not given)
T/C (endpoint: mean survival time, dose: 100.0 mg/kg/injection, schedule: Q01DX009 (ip), vehicle: saline): 92 % of control
T/C (endpoint: mean survival time, dose: 200.0 mg/kg/injection, schedule: Q01DX009 (ip), vehicle: saline): 94 % of control

O=P(O)(c1ccccc1)c1ccccc1
T/C (endpoint: mean survival time, dose: 100.0 mg/kg/injection, schedule: Q04DX002 (ip), vehicle: Klucel (hydroxypropylcellulose) (HPC)): 102 % of control and 86 % of control
T/C (endpoint: mean survival time, dose: 200.0 mg/kg/injection, schedule: Q04DX002 (ip), vehicle: Klucel (hydroxypropylcellulose) (HPC)): 93 % of control and 89 % of control
T/C (endpoint: mean survival time, dose: 400.0 mg/kg/injection, schedule: Q04DX002 (ip), vehicle: Klucel (hydroxypropylcellulose) (HPC)): 96 % of control

Cn1cc2ccccc2n1
T/C (endpoint: mean survival time, dose: 50.0 mg/kg/injection, schedule: Q01DX001 (ip), vehicle: saline with Tween-80): 102 % of control
T/C (endpoint: mean survival time, dose: 100.0 mg/kg/injection, schedule: Q01DX001 (ip), vehicle: saline with Tween-80): 100 % of control
T/C (endpoint: mean survival time, dose: 200.0 mg/kg/injection, schedule: Q01DX001 (ip), vehicle: saline with Tween-80): 102 % of control

COc1ccc(C(CC(C)=O)c2c(O)c3ccccc3oc2=O)cc1OC (stereo not given)
T/C (endpoint: mean survival time, dose: 1.56 mg/kg/injection, schedule: Q01DX009 (ip), vehicle: water): 102 % of control
T/C (endpoint: mean survival time, dose: 3.12 mg/kg/injection, schedule: Q01DX009 (ip), vehicle: water): 97 % of control
T/C (endpoint: mean survival time, dose: 6.25 mg/kg/injection, schedule: Q01DX009 (ip), vehicle: water): 98 % of control
T/C (endpoint: mean survival time, dose: 12.5 mg/kg/injection, schedule: Q01DX009 (ip), vehicle: water): 93 % of control
T/C (endpoint: mean survival time, dose: 25.0 mg/kg/injection, schedule: Q01DX009 (ip), vehicle: water): 93 % of control and 86 % of control

COc1cc(C=Nc2ccc3c(c2)Cc2ccccc2-3)ccc1O
T/C (endpoint: mean survival time, dose: 100.0 mg/kg/injection, schedule: Q04DX003 (ip), vehicle: saline sonified): 94 % of control
T/C (endpoint: mean survival time, dose: 200.0 mg/kg/injection, schedule: Q04DX003 (ip), vehicle: saline sonified): 97 % of control
T/C (endpoint: mean survival time, dose: 400.0 mg/kg/injection, schedule: Q04DX003 (ip), vehicle: saline sonified): 95 % of control

COc1ccc(C(=O)c2ccccc2C)cc1OC
T/C [1]: 95 % of control
T/C [2]: 97 % of control
T/C [3]: 91 % of control

O=C(CCc1ccc(N(CCCl)CCCl)cc1)NC1CCCC1
T/C (endpoint: mean survival time, dose: 100.0 mg/kg/injection, schedule: Q04DX003 (ip), vehicle: Klucel (hydroxypropylcellulose) (HPC)): 116 % of control
T/C (endpoint: mean survival time, dose: 200.0 mg/kg/injection, schedule: Q04DX003 (ip), vehicle: Klucel (hydroxypropylcellulose) (HPC)): 115 % of control
T/C (endpoint: mean survival time, dose: 400.0 mg/kg/injection, schedule: Q04DX003 (ip), vehicle: Klucel (hydroxypropylcellulose) (HPC)): 115 % of control

CNc1ccc(C(=O)C2CC2)cc1
T/C [4]: 92 % of control
T/C (endpoint: mean survival time, dose: 100.0 mg/kg/injection, schedule: Q04DX003 (ip), vehicle: saline with Tween-80): 100 % of control
T/C (endpoint: mean survival time, dose: 200.0 mg/kg/injection, schedule: Q01DX009 (ip), vehicle: saline with Tween-80): 98 % of control
T/C (endpoint: mean survival time, dose: 200.0 mg/kg/injection, schedule: Q04DX003 (ip), vehicle: saline with Tween-80): 100 % of control
T/C (endpoint: mean survival time, dose: 400.0 mg/kg/injection, schedule: Q04DX003 (ip), vehicle: saline with Tween-80): 86 % of control

CCOc1ccccc1NCN1C(=O)c2ccccc2C1=O
T/C [4]: 90 % of control
T/C (endpoint: mean survival time, dose: 200.0 mg/kg/injection, schedule: Q04DX002 (ip), vehicle: saline with Tween-80): 223 % of control
T/C (endpoint: mean survival time, dose: 400.0 mg/kg/injection, schedule: Q04DX002 (ip), vehicle: saline with Tween-80): 91 % of control

Nc1cccc2c1ccc1ccc3ccccc3c12
T/C (endpoint: mean survival time, dose: 100.0 mg/kg/injection, schedule: Q01DX001 (ip), vehicle: Klucel (hydroxypropylcellulose) (HPC)): 103 % of control
T/C (endpoint: mean survival time, dose: 200.0 mg/kg/injection, schedule: Q01DX001 (ip), vehicle: Klucel (hydroxypropylcellulose) (HPC)): 101 % of control
T/C (endpoint: mean survival time, dose: 400.0 mg/kg/injection, schedule: Q01DX001 (ip), vehicle: Klucel (hydroxypropylcellulose) (HPC)): 108 % of control

NN1CCN(N)C(=O)C1=O
T/C (endpoint: mean survival time, dose: 100.0 mg/kg/injection, schedule: Q04DX003 (ip), vehicle: saline): 105 % of control
T/C (endpoint: mean survival time, dose: 200.0 mg/kg/injection, schedule: Q04DX003 (ip), vehicle: saline): 108 % of control
T/C (endpoint: mean survival time, dose: 400.0 mg/kg/injection, schedule: Q04DX003 (ip), vehicle: saline): 97 % of control

CN(C)N=Nc1ccc(C(N)=O)cc1
T/C (endpoint: mean survival time, dose: 30.0 mg/kg/injection, schedule: Q01DX Z (ip), vehicle: other): 108 % of control
T/C (endpoint: mean survival time, dose: 40.0 mg/kg/injection, schedule: Q01DX Z (ip), vehicle: other): 111 % of control
T/C (endpoint: mean survival time, dose: 60.0 mg/kg/injection, schedule: Q01DX Z (ip), vehicle: other): 121 % of control
T/C (endpoint: median survival time, dose: 65.0 mg/kg/injection, schedule: Q01DX001 (ip), vehicle: steriod suspending solution): 100 % of control
T/C (endpoint: median survival time, dose: 65.0 mg/kg/injection, schedule: Q01DX009 (ip), vehicle: steriod suspending solution): 105 % of control
T/C (endpoint: median survival time, dose: 108.0 mg/kg/injection, schedule: Q01DX001 (ip), vehicle: steriod suspending solution): 100 % of control
T/C (endpoint: median survival time, dose: 180.0 mg/kg/injection, schedule: Q04DX003 (ip), vehicle: steriod suspending solution): 105 % of control
T/C (endpoint: median survival time, dose: 300.0 mg/kg/injection, schedule: Q01DX001 (ip), vehicle: steriod suspending solution): 100 % of control
